Laboratory results taken from patent US8022206B2 (OSI Pharmaceuticals, LLC, priority 2008, dated 2011).

Legend:
RON (human) = RON (human) (Homo sapiens, UniProt Q04912); assay: RON (human) AlphaScreen kinase assay, Km of ATP; format: biochemical; conditions: AlphaScreen, Km of ATP; read-out: RON biochemical IC50
Procedure, shortened: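 Reaction was started with enzyme and run 30 min at RT. PT66 donor/acceptor beads in an EDTA-containing Tris pH 7.5 buffer were then added, and the signal was read after 1 h.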

MET (human) = MET (human) (Homo sapiens, UniProt P08581); assay: MET (human) AlphaScreen kinase assay, Km of ATP; format: biochemical; conditions: AlphaScreen, Km of ATP; read-out: Met biochemical IC50
Procedure, shortened: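 Human MET at lot-optimised concentration in 50 mM Tris pH 7.4 buffer with 1 mM DTT, compound at 1% DMSO final; enzyme starts the reaction, 60 min at RT.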

RON (human), sequence (Q04912 25-1400): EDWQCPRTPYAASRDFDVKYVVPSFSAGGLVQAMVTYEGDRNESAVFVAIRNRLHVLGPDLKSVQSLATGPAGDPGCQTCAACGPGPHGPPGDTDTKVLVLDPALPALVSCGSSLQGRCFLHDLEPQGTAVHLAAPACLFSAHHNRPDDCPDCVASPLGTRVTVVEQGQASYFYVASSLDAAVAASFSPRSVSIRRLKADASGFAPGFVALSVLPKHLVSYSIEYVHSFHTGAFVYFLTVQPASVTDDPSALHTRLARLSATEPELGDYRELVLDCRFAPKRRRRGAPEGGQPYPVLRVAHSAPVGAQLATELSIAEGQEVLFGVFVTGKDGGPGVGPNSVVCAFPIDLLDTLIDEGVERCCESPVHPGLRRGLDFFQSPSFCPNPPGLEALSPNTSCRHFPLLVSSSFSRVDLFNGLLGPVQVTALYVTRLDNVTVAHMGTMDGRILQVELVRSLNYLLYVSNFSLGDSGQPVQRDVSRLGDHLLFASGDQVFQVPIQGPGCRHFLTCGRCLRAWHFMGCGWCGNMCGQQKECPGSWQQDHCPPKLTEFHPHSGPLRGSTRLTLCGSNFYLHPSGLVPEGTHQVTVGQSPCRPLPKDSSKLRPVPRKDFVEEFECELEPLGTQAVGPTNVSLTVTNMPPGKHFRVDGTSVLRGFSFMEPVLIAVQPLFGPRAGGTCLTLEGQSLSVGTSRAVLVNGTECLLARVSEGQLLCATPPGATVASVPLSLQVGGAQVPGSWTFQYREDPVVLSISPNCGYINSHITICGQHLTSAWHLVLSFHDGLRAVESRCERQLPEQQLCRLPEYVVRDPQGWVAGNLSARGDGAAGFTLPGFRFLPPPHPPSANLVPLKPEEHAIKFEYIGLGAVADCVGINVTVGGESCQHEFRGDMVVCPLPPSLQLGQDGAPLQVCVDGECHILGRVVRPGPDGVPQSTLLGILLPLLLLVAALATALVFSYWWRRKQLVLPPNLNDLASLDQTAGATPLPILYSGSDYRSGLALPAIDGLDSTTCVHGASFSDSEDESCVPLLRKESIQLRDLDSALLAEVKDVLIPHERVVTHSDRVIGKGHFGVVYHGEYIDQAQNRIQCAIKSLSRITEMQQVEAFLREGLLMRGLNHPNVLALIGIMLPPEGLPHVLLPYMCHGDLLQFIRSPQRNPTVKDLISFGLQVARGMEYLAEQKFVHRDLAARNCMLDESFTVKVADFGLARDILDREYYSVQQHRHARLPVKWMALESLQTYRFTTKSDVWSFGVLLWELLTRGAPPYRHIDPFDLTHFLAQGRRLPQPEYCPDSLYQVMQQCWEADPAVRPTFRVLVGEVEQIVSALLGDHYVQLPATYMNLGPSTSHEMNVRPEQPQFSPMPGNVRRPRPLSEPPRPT
MET (human), sequence (P08581 25-1390): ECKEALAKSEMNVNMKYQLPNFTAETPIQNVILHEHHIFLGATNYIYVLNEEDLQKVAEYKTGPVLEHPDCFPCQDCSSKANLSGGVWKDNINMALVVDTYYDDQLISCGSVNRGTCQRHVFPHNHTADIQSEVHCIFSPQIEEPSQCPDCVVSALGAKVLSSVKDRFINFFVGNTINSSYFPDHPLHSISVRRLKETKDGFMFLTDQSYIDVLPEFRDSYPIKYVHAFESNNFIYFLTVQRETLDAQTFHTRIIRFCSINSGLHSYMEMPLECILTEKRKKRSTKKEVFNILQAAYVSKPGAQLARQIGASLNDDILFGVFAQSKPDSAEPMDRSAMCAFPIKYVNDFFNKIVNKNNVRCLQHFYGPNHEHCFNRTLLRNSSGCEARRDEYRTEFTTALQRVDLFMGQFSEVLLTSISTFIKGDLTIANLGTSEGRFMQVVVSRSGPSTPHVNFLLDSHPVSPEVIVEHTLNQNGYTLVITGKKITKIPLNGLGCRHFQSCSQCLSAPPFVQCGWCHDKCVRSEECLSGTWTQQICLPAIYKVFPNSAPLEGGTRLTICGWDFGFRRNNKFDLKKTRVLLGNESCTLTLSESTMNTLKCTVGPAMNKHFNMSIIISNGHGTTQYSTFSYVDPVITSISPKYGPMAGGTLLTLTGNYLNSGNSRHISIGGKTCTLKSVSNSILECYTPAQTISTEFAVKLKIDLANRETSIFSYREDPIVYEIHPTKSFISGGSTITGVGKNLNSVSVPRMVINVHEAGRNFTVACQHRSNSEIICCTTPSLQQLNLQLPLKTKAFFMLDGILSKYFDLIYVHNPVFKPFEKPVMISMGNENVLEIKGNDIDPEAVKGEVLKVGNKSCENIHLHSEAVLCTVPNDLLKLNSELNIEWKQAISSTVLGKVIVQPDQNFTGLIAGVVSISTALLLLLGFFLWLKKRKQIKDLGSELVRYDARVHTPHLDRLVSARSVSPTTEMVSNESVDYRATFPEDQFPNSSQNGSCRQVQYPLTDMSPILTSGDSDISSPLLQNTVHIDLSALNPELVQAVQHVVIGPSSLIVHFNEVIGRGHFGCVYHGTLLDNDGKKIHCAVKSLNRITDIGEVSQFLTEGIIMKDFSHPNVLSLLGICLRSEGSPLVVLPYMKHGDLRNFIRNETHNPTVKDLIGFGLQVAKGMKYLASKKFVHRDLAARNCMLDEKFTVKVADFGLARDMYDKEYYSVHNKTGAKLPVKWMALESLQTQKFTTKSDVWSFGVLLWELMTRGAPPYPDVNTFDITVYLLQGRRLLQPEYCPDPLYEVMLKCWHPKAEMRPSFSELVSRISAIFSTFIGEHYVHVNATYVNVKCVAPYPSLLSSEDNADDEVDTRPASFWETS

SMILES: C[C@@H](Oc1c(N)ncc2c(C3=CCN(C(=O)N4CCN(C)CC4)CC3)coc12)c1c(Cl)ccc(F)c1Cl [Example 225, (4-{6-Amino-7-[(R)-1-(2,6-dichloro-3-fluorophenyl)-ethoxy]-furo[3,2-c]pyridin-3-yl}-3,6-dihydro-2H-pyridin-1-yl)-(4-methylpiperazin-1-yl)-methanone]
- IC50 (RON (human)): < 500 nM
- IC50 (MET (human)): < 500 nM

SMILES: C[C@@H](Oc1c(N)ncc2c(-c3ccc(CN(C)C)cc3)coc12)c1c(Cl)ccc(F)c1Cl [Example 105, 7-[(R)-1-(2,6-Dichloro-3-fluorophenyl)ethoxy]-3-(4-dimethylaminomethylphenyl)-furo[3,2-c]pyridin-6-ylamine]
- IC50 (RON (human)): 500 to 5000 nM
- IC50 (MET (human)): < 500 nM

SMILES: C[C@@H](Oc1c(N)ncc2c(C(=O)NCCN)coc12)c1c(Cl)ccc(F)c1Cl [Example 193, 6-Amino-7-[(R)-1-(2,6-dichloro-3-fluorophenyl)ethoxy]furo[3,2-c]pyridine-3-carboxylic acid (3-aminoethyl)amide]
- IC50 (RON (human)): 500 to 5000 nM
- IC50 (MET (human)): < 500 nM

SMILES: C[C@@H](Oc1c(N)ncc2c(-c3ccc(C(=O)N4CCCN(C)CC4)cc3)coc12)c1c(Cl)ccc(F)c1Cl [Example 293, (4-{6-Amino-7-[(R)-1-(2,6-dichloro-3-fluorophenyl)ethoxy]furo[3,2-c]pyridin-3-yl}phenyl)-(4-methyl-[1,4]diazepan-1-yl)methanone]
- IC50 (RON (human)): < 500 nM
- IC50 (MET (human)): < 500 nM

SMILES: CNS(=O)(=O)c1cccc(-c2coc3c(O[C@H](C)c4c(Cl)ccc(F)c4Cl)c(N)ncc23)c1 [Example 83, 3-{6-Amino-7-[(R)-1-(2,6-dichloro-3-fluorophenyl)ethoxy]-furo[3,2-c]pyridin-3-yl}-N-methylbenzenesulfonamide]
- IC50 (RON (human)): 500 to 5000 nM
- IC50 (MET (human)): 500 to 5000 nM

SMILES: C[C@@H](Oc1c(N)ncc2c(C(=O)N(C)C)coc12)c1c(Cl)ccc(F)c1Cl [Example 177, 6-Amino-7-[(R)-1-(2,6-dichloro-3-fluorophenyl)ethoxy]furo[3,2-c]pyridine-3-carboxylic acid dimethylamide]
- IC50 (RON (human)): 5000 to 20000 nM
- IC50 (MET (human)): 500 to 5000 nM

SMILES: CNC(=O)c1cccc(C(C)Oc2c(N)ncc3c(-c4cnn(C5CCNCC5)c4)coc23)c1 (centres unmarked) [Example 412, 3-{1-[6-Amino-3-(1-piperidin-4-yl-1H-pyrazol-4-yl)furo[3,2-c]pyridin-7-yloxy]ethyl}-N-methylbenzamide]
- IC50 (RON (human)): 500 to 5000 nM
- IC50 (MET (human)): 500 to 5000 nM

SMILES: C[C@@H](Oc1c(N)ncc2c(-c3ccc(C(=O)N4CCN(CCO)CC4)cc3)coc12)c1c(Cl)ccc(F)c1Cl [Example 99, (4-{6-Amino-7-[(R)-1-(2,6-dichloro-3-fluorophenyl)ethoxy]-furo[3,2-c]pyridin-3-yl}phenyl)-[4-(2-hydroxyethyl)piperazin-1-yl]methanone]
- IC50 (RON (human)): < 500 nM
- IC50 (MET (human)): < 500 nM

SMILES: CC(Oc1c(N)ncc2c(-c3cnn(C4CCNCC4)c3)coc12)c1nc2ccccc2s1 (centres unmarked) [Example 404, 7-(1-Benzothiazol-2-ylethoxy)-3-(1-piperidin-4-yl-1H-pyrazol-4-yl)furo[3,2-c]pyridin-6-ylamine]
- IC50 (RON (human)): 500 to 5000 nM
- IC50 (MET (human)): 500 to 5000 nM

SMILES: C[C@@H](Oc1c(N)ncc2c(C(=O)NCC3CCOCC3)coc12)c1c(Cl)ccc(F)c1Cl [Example 187, 6-Amino-7-[(R)-1-(2,6-dichloro-3-fluorophenyl)ethoxy]furo[3,2-c]pyridine-3-carboxylic acid (tetrahydropyran-4-ylmethyl)amide]
- IC50 (RON (human)): 500 to 5000 nM
- IC50 (MET (human)): 500 to 5000 nM

SMILES: C[C@@H](Oc1c(N)ncc2c(C3=CCN(C(=O)[C@H](O)c4ccccc4)CC3)coc12)c1c(Cl)ccc(F)c1Cl [Example 266, (2R)-1-[4-{6-Amino-7-[(1R)-1-(2,6-dichloro-3-fluorophenyl)ethoxy]furo[3,2-c]pyridin-3-yl}-3,6-dihydropyridin-1(2H)-yl]-2-hydroxy-2-phenylethanone]
- IC50 (RON (human)): 500 to 5000 nM
- IC50 (MET (human)): 500 to 5000 nM

SMILES: CCNC(=O)c1ccc(-c2coc3c(O[C@H](C)c4c(Cl)ccc(F)c4Cl)c(N)ncc23)s1 [Example 207, 5-{6-Amino-7-[(R)-1-(2,6-dichloro-3-fluorophenyl)ethoxy]-furo[3,2-c]pyridin-3-yl}-thiophene-2-carboxylic acid ethyl amide]
- IC50 (RON (human)): 500 to 5000 nM
- IC50 (MET (human)): 500 to 5000 nM

SMILES: C[C@@H](Oc1c(N)ncc2c(C3=CCN(C(N)=O)CC3)coc12)c1c(Cl)ccc(F)c1Cl [Example 34, 4-{6-Amino-7-[(R)-1-(2,6-dichloro-3-fluorophenyl)ethoxy]-furo[3,2-c]pyridin-3-yl}-3,6-dihydro-2H-pyridine-1-carboxamide]
- IC50 (RON (human)): < 500 nM
- IC50 (MET (human)): < 500 nM

SMILES: C[C@@H](Oc1c(N)ncc2c(-c3cccc(N)c3)coc12)c1c(Cl)ccc(F)c1Cl [Example 66, 3-(3-Aminophenyl)-7-[(R)-1-(2,6-dichloro-3-fluorophenyl)ethoxy]-furo[3,2-c]pyridin-6-ylamine]
- IC50 (RON (human)): 500 to 5000 nM
- IC50 (MET (human)): 500 to 5000 nM

SMILES: C[C@@H](Oc1c(N)ncc2c(-c3ccc(C(=O)Nc4nccs4)cc3)coc12)c1c(Cl)ccc(F)c1Cl [Example 109, 4-{6-Amino-7-[(R)-1-(2,6-dichloro-3-fluorophenyl)ethoxy]-furo[3,2-c]pyridin-3-yl}-N-thiazol-2-yl-benzamide]
- IC50 (RON (human)): 500 to 5000 nM
- IC50 (MET (human)): 500 to 5000 nM

SMILES: C[C@@H](Oc1c(N)ncc2c(C3=CCN(C(=O)OC4CCCC4)CC3)coc12)c1c(Cl)ccc(F)c1Cl [Example 54, 4-{6-Amino-7-[(R)-1-(2,6-dichloro-3-fluorophenyl)-ethoxy]-furo[3,2-c]pyridin-3-yl}-3,6-dihydro-2H-pyridine-1-carboxylic acid cyclopentyl ester]
- IC50 (RON (human)): 500 to 5000 nM
- IC50 (MET (human)): 500 to 5000 nM

SMILES: C[C@@H](Oc1c(N)ncc2c(C3=CCN(C(=O)C4CCCCN4C)CC3)coc12)c1c(Cl)ccc(F)c1Cl (stereo partly drawn) [Example 236, (4-{6-Amino-7-[(R)-1-(2,6-dichloro-3-fluorophenyl)ethoxy]-furo[3,2-c]pyridin-3-yl}-3,6-dihydro-2H-pyridin-1-yl)-(1-methylpiperidin-2-yl)methanone]
- IC50 (RON (human)): < 500 nM
- IC50 (MET (human)): < 500 nM

SMILES: CNCC(=O)N1CC=C(c2coc3c(O[C@H](C)c4c(Cl)ccc(F)c4Cl)c(N)ncc23)CC1 [Example 250, 1-[4-{6-Amino-7-[(1R)-1-(2,6-dichloro-3-fluorophenyl)ethoxy]furo[3,2-c]pyridin-3-yl}-3,6-dihydropyridin-1(2H)-yl]-2-(methylamino)ethanone]
- IC50 (RON (human)): < 500 nM
- IC50 (MET (human)): < 500 nM

SMILES: CC(Oc1c(N)ncc2c(-c3cnn(C4CCNCC4)c3)coc12)c1cccc(C(F)(F)F)c1 (centres unmarked) [Example 347, 3-(1-Piperidin-4-yl-1H-pyrazol-4-yl)-7-[1-(3-trifluoromethyl-phenyl)ethoxy]furo[3,2-c]pyridin-6-ylamine]
- IC50 (RON (human)): 500 to 5000 nM
- IC50 (MET (human)): < 500 nM

SMILES: CC(C)N1CC=C(c2coc3c(O[C@H](C)c4c(Cl)ccc(F)c4Cl)c(N)ncc23)CC1 [Example 45, 7-[(R)-1-(2,6-Dichloro-3-fluorophenyl)-ethoxy]-3-(1-isopropyl-1,2,3,6-tetrahydropyridin-4-yl)-furo[3,2-c]pyridin-6-ylamine]
- IC50 (RON (human)): < 500 nM
- IC50 (MET (human)): < 500 nM

SMILES: C[C@@H](Oc1c(N)ncc2c(-c3ccn4ccnc4c3)coc12)c1c(Cl)ccc(F)c1Cl [Example 82, 7-[(R)-1-(2,6-Dichloro-3-fluorophenyl)ethoxy]-3-imidazo[1,2-a]pyridin-7-ylfuro[3,2-c]pyridin-6-ylamine]
- IC50 (RON (human)): 500 to 5000 nM
- IC50 (MET (human)): < 500 nM

SMILES: C[C@H](Oc1c(N)ncc2c(-c3cnn(C4CCNCC4)c3)coc12)c1nnc2ccc(-c3ccccc3)nn12 [Example 478, 7-[(1S)-1-(6-phenyl[1,2,4]triazolo[4,3-b]pyridazin-3-yl)ethoxy]-3-[1-(piperidin-4-yl)-1H-pyrazol-4-yl]furo[3,2-c]pyridin-6-amine]
- IC50 (RON (human)): > 20000 nM
- IC50 (MET (human)): 500 to 5000 nM

SMILES: C[C@@H](Oc1c(N)ncc2c(-c3cnn(C4CCN(C(N)=O)CC4)c3)coc12)c1c(Cl)ccc(F)c1Cl [Example 272, 4-(4-{6-Amino-7-[(1R)-1-(2,6-dichloro-3-fluorophenyl)ethoxy]furo[3,2-c]pyridin-3-yl}-1H-pyrazol-1-yl)piperidine-1-carboxamide]
- IC50 (RON (human)): 500 to 5000 nM
- IC50 (MET (human)): 500 to 5000 nM

SMILES: CC(Oc1c(N)ncc2c(-c3cnn(C4CCNCC4)c3)coc12)c1cc(F)cc(Br)c1 (centres unmarked) [Example 434, 7-[1-(3-Bromo-5-fluorophenyl)ethoxy]-3-(1-piperidin-4-yl-1H-pyrazol-4-yl)furo[3,2-c]pyridin-6-ylamine]
- IC50 (RON (human)): < 500 nM
- IC50 (MET (human)): < 500 nM

SMILES: C[C@@H](Oc1c(N)ncc2c(-c3cnn(C4CCNCC4)c3)c(C#CCN)oc12)c1c(Cl)ccc(F)c1Cl [Example 173, 2-(3-Aminoprop-1-ynyl)-7-[(R)-1-(2,6-dichloro-3-fluorophenyl)ethoxy]-3-(1-piperidin-4-yl-1H-pyrazol-4-yl)-furo[3,2-c]pyridin-6-ylamine]
- IC50 (RON (human)): < 500 nM
- IC50 (MET (human)): < 500 nM

SMILES: C[C@H](Oc1c(N)ncc2ccoc12)c1nnc2ccc(-c3ccccc3)nn12 [Example 475, 7-[(1S)-1-(6-phenyl[1,2,4]triazolo[4,3-b]pyridazin-3-yl)ethoxy]furo[3,2-c]pyridin-6-amine]
- IC50 (RON (human)): > 20000 nM
- IC50 (MET (human)): 5000 to 20000 nM

SMILES: C[C@@H](Oc1c(N)ncc2c(-c3csc(C(=O)N(C)C)c3)coc12)c1c(Cl)ccc(F)c1Cl [Example 317, 4-{6-Amino-7-[(R)-1-(2,6-dichloro-3-fluorophenyl)ethoxy]furo[3,2-c]pyridin-3-yl}thiophene-2-carboxylic acid Dimethylamide]
- IC50 (RON (human)): 500 to 5000 nM
- IC50 (MET (human)): 500 to 5000 nM

SMILES: C[C@@H](Oc1c(N)ncc2c(-c3ccc(N4CCN(C)CC4)cc3)coc12)c1c(Cl)ccc(F)c1Cl [Example 86, 7-[(R)-1-(2,6-Dichloro-3-fluor-phenyl)ethoxy]-3-[4-(4-methylpiperazin-1-yl)-phenyl]furo[3,2-c]pyridin-6-ylamine]
- IC50 (RON (human)): < 500 nM
- IC50 (MET (human)): < 500 nM
